Measured values: patent US11559545B2, “Inhibition of UCHL1 in high-grade serous ovarian cancer” (The Trustees of Indiana University, priority 2019, dated 2023)

Experiments:
UCHL1 [1] = assay: Relative UCHL1 expression (qPCR) after DNA methylase inhibitor treatment in ovarian cancer cells; format: cell-based; conditions: 200 μM, day 2, HGSOC cell lines with mutant p53, FIG. 7I
Procedure: FIG. 7A depicts relative UCHL1 expression (qPCR) after treatment with DNA methylase inhibitor, 5AzaDC (200 μM, day3) in ovarian cancer cells. The following cell cultures were included in the analysis: HeyA8 (WT p53), SKOV3 (p53 null), OVCAR5 (p53 null), Kuramochi (mutant p53), and OVCAR4 (mutant p53).
FIG. 7H depicts relative UCHL1 expression (qPCR) after treatment with DNA methylase inhibitor, 5AzaDC (200 μM, day 2) in ovarian cancer cells with wild-type p53 (HeyA8 and A2780), ovarian cancer cells with p53-null mutations (OVCAR5 and SKOV3) and normal fallopian tube cells with wild-type p53 (FTE282).
FIG. 7I illustrates that no change in UCHL1 levels were detected with treatment with DNA methylase inhibitor 5AzaDC (200 μM, day 2) in HGSOC cell lines with mutant p53.

PSMA7 = PSMA7 RNA and protein levels in treated TKO mice; format: in vivo, mouse; conditions: treated TKO mice vs untreated TKO control, FIG. 12E
UCHL1 [2] = conditions: cited from earlier work
Proteasome = Proteasome activity in treated TKO mice; format: in vivo, mouse; conditions: treated TKO mice vs TKO CTL mice, FIG. 12E
[3] = system: HGSOC primary and metastatic tumors; assay: Transgenic TKO mouse model of HGSOC: growth and progression of primary and metastatic tumors after UCHL1 inhibition; format: in vivo
Text: Triple mutant (TKO) mice are Pten and Dicer knockout and overexpress mutant p53 R172H (corresponding to human R175H mutant) (Pten−/− Dicer−/− and p53-R172H). These mice spontaneously developed primary tumors in the fallopian tube at age 4 months, which metastasize to other organs by 5-6 months. This model recapitulates metastatic tumor growth as in ovarian cancer patients. […] The tumors are circled using a dotted line and/or indicated with arrows.
FIGS. 11B and 11C illustrate the reduction in primary HGSOC tumor size with LDN treatment in mice aged 4-6 months.

With `Nc1ncn([C@H]2C[C@H](O)[C@@H](CO)O2)c(=O)n1` [5AzaDC] the UCHL1 levels (UCHL1 [1]) was “no change”.
In the case of `CC(=O)O/N=C1\C(=O)N(Cc2cc(Cl)ccc2Cl)c2ccc(Cl)cc21` [LDN-57444], the “PSMA7 RNA levels” value (PSMA7) is given as “reduced”, the PSMA7 protein levels (PSMA7) is given as “reduced” and the “mode of UCHL1 inhibition” value (UCHL1 [2]) is given as “competitive, reversible, active site-directed inhibitor”. For the same compound, the Proteasome activity (Proteasome) was “significantly reduced”, the primary tumor ([3]; TKO mice (Pten-/- Dicer-/- p53-R172H) vs TKO control, FIG. 11A) was “visible reduction” and the “metastatic tumors in the omentum, diaphragm, mesentery, and peritoneal wall” value ([3]; TKO mice vs TKO control, FIG. 11A) was “absence”. For the same compound, the “primary HGSOC tumor size” value ([3]; mice aged 4-6 months, FIGS. 11B and 11C) was “reduction”.
